Test system: human pancreatic lipase
Assay: lipase activity measured in control, normal and heparin-administered samples with each reagent (1,2-dioleoyl glycerol, UV method; Liquitech Lipase Color II for verification)
Type: biochemical
Parameters: lipase activity relative to (1) comparative example NaDCA (Table 1): concentration or dose not given beside the values
Conditions: for lipase activity (Table 1): NaDCA pH 8.15, other bile salts pH 7.0; for lipase activity relative to (1) comparative example NaDCA (Table 1): pH 7.0
Description: A mixture of the substrate stock solution and the R-1 in a proportion of 1:2 was used as a first reagent. The R-2 was directly used as a second reagent. As a sample, pooled serum or a control sample (a control containing a pancreatic lipase) was used. A proportion in amount among the sample, the first reagent and the second reagent was set as sample:first reagent:second reagent of 0.01 ml:0.18 ml:0.06 ml. The sample was added to the first reagent, the resultant mixture was heated at 37° C. for 5 minutes, the second reagent was added thereto, and a change rate of an absorbance at 340 nm based on reduced NADP was obtained at 37° C. from 3 minutes after the addition of the second reagent to 4 minutes after the addition, and then, the lipase activity was calculated by using a molecular extinction coefficient of 6300 L/mol·cm of the reduced NADP. Besides, as a sample blank, saline was used instead of a sample, an absorbance was measured by using the reagent for sample blank obtained by removing MGLPII from the second reagent, and a difference between the thus measured two values was defined as an enzyme activity value. For the measurement, Hitachi automatic analyzer Model H7170 or H7080 was used.
Similarly to Example 1, a mixture of the substrate stock solution and the R-1 in a proportion of 1:2 was used as a first reagent. Except for this, the measurement was performed in the same manner as in Example 1.
A commercially available reagent for a resorufin colorimetric method, “Liquitech Lipase Color II” manufactured by Roche Diagnostics using 1,2-O-dilauryl-rac-glycerol-3-glutaric acid-(6-methylresorufin)ester (DGGR), which is regarded not to be influenced by a non-pancreatic lipase, such as a lipoprotein lipase or a hepatic lipase, appearing in blood due to administration of heparin, was used for verifying the effect of the present example. “Liquitech Lipase Color II” was used in accordance with the package insert, and a special calibrator was used for calculating the enzyme activity. […] The concentration of each bile acid used in the present example was set to be the same as that in the comparative example.
As samples, a control, non-heparin-administered samples (normal samples), and heparin-administered samples were used.
The compositions of the reagents were the same as those of Example 2. As a comparative example, NaDCA (in a concentration of 40 mmol/L in the R-1) was used as the bile acid, and the reaction solution was adjusted to pH 8.15 (by the Bicine buffer) for measuring a heparin-administered sample.
It is noted that CRM-001b containing a human pancreatic recombinant lipase dissolved not in distilled water but in a pooled serum was used as the calibrator to calculate the lipase activity.
As a bile acid of the present example and a reference example, NaTDCA was selected, and the pH dependence with the pH of a reaction solution changed in a range of 6.2 to 7.6 was examined. It is noted that a case of pH 7.6 was used as the reference example. An MES buffer was used for adjusting pH to 6.2 and 6.4, and the BES buffer was used for adjusting the other pHs. As samples, (six) control samples (controls each containing a pancreatic lipase) and (nine) heparin-administered samples were used. As a comparative example, NaDCA (in a concentration of 40 mmol/L in the R-1) was used as the bile acid, and a reaction solution having pH 8.15 (the Bicine buffer) was used. Besides, “Liquitech Lipase Color II” manufactured by Roche Diagnostics was used for verifying the effect of the present example.

- lipase activity (Table 1) (Normal sample 1): 43.4 U/L
- lipase activity relative to (1) comparative example NaDCA (Table 1) (Normal sample 1): 111.1%
- lipase activity (Table 1) (Normal sample 2): 96.4 U/L
- lipase activity relative to (1) comparative example NaDCA (Table 1) (Normal sample 2): 101.4%
- lipase activity (Table 1) (Normal sample 3): 50.7 U/L
- lipase activity relative to (1) comparative example NaDCA (Table 1) (Normal sample 3): 108.7%
- lipase activity (Table 1) (Normal sample 4): 44.5 U/L
- lipase activity relative to (1) comparative example NaDCA (Table 1) (Normal sample 4): 102.3%
- lipase activity (Table 1) (Normal sample 5): 31.7 U/L
- lipase activity relative to (1) comparative example NaDCA (Table 1) (Normal sample 5): 77.8%
- lipase activity (Table 1) (sample Heparin 1): 30.1 U/L
- lipase activity relative to (1) comparative example NaDCA (Table 1) (sample Heparin 1): 39.2%
- lipase activity (Table 1) (sample Heparin 2): 44.2 U/L
- lipase activity relative to (1) comparative example NaDCA (Table 1) (sample Heparin 2): 50.9%
- lipase activity (Table 1) (sample Heparin 3): 37.9 U/L
- lipase activity relative to (1) comparative example NaDCA (Table 1) (sample Heparin 3): 33.6%
- lipase activity (Table 1) (sample Heparin 4): 28.9 U/L
- lipase activity relative to (1) comparative example NaDCA (Table 1) (sample Heparin 4): 28.5%
- lipase activity (Table 1) (sample Heparin 5): 30.1 U/L
- lipase activity relative to (1) comparative example NaDCA (Table 1) (sample Heparin 5): 44.0%
- lipase activity (Table 1) (sample Heparin 6): 30.1 U/L
- lipase activity relative to (1) comparative example NaDCA (Table 1) (sample Heparin 6): 43.4%
- lipase activity (Table 1) (sample Heparin 7): 50.4 U/L
- lipase activity relative to (1) comparative example NaDCA (Table 1) (sample Heparin 7): 36.4%
- lipase activity (Table 1) (sample Heparin 8): 54.7 U/L
- lipase activity relative to (1) comparative example NaDCA (Table 1) (sample Heparin 8): 43.4%
- lipase activity (Table 1) (sample Heparin 9): 82.4 U/L
- lipase activity relative to (1) comparative example NaDCA (Table 1) (sample Heparin 9): 48.8%
- lipase activity (Table 3) (sample Heparin 21, pH 6.2): 35.9 U/L
- lipase activity (Table 3) (sample Heparin 21, pH 6.4): 37.9 U/L
- lipase activity (Table 3) (sample Heparin 21, pH 6.6): 40.9 U/L
- lipase activity (Table 3) (sample Heparin 21, pH 6.9): 48.6 U/L
- lipase activity (Table 3) (sample Heparin 21, pH 7.2): 47.6 U/L
- lipase activity (Table 3) (sample Heparin 21, pH 7.4): 44.5 U/L
- lipase activity (Table 3) (sample Heparin 21, pH 7.6): 34.7 U/L
- lipase activity (Table 3) (sample Heparin 22, pH 6.2): 39.7 U/L
- lipase activity (Table 3) (sample Heparin 22, pH 6.4): 41.7 U/L
- lipase activity (Table 3) (sample Heparin 22, pH 6.6): 45.5 U/L
- lipase activity (Table 3) (sample Heparin 22, pH 6.9): 53.6 U/L
- lipase activity (Table 3) (sample Heparin 22, pH 7.2): 52.6 U/L
- lipase activity (Table 3) (sample Heparin 22, pH 7.4): 49.2 U/L
- lipase activity (Table 3) (sample Heparin 22, pH 7.6): 38.3 U/L
- lipase activity (Table 3) (sample Heparin 23, pH 6.2): 61.0 U/L
- lipase activity (Table 3) (sample Heparin 23, pH 6.4): 63.0 U/L
- lipase activity (Table 3) (sample Heparin 23, pH 6.6): 71.4 U/L
- lipase activity (Table 3) (sample Heparin 23, pH 6.9): 81.7 U/L
- lipase activity (Table 3) (sample Heparin 23, pH 7.2): 80.5 U/L
- lipase activity (Table 3) (sample Heparin 23, pH 7.4): 75.8 U/L
- lipase activity (Table 3) (sample Heparin 23, pH 7.6): 58.6 U/L
- lipase activity (Table 3) (sample Heparin 24, pH 6.2): 44.9 U/L
- lipase activity (Table 3) (sample Heparin 24, pH 6.4): 46.9 U/L
- lipase activity (Table 3) (sample Heparin 24, pH 6.6): 51.8 U/L
- lipase activity (Table 3) (sample Heparin 24, pH 6.9): 60.4 U/L
- lipase activity (Table 3) (sample Heparin 24, pH 7.2): 59.4 U/L
- lipase activity (Table 3) (sample Heparin 24, pH 7.4): 55.7 U/L
- lipase activity (Table 3) (sample Heparin 24, pH 7.6): 43.2 U/L
- lipase activity (Table 3) (sample Heparin 25, pH 6.2): 38.0 U/L
- lipase activity (Table 3) (sample Heparin 25, pH 6.4): 40.0 U/L
- lipase activity (Table 3) (sample Heparin 25, pH 6.6): 43.5 U/L
- lipase activity (Table 3) (sample Heparin 25, pH 6.9): 51.4 U/L
- lipase activity (Table 3) (sample Heparin 25, pH 7.2): 50.4 U/L
- lipase activity (Table 3) (sample Heparin 25, pH 7.4): 47.1 U/L
- lipase activity (Table 3) (sample Heparin 25, pH 7.6): 36.7 U/L
- lipase activity (Table 1) (sample PRECINORM): 52.1 U/L
- lipase activity (Table 3) (sample PRECINORM, pH 6.2): 46.8 U/L
- lipase activity (Table 3) (sample PRECINORM, pH 6.4): 50.0 U/L
- lipase activity (Table 3) (sample PRECINORM, pH 6.6): 52.6 U/L
- lipase activity (Table 3) (sample PRECINORM, pH 6.9): 67.1 U/L
- lipase activity relative to (1) comparative example NaDCA (Table 1) (sample PRECINORM): 102.1%
- lipase activity (Table 3) (sample PRECINORM, pH 7.2): 59.5 U/L
- lipase activity (Table 3) (sample PRECINORM, pH 7.4): 57.1 U/L
- lipase activity (Table 3) (sample PRECINORM, pH 7.6): 52.0 U/L
- lipase activity (Table 1) (sample PRECIPATH): 134.6 U/L
- lipase activity (Table 3) (sample PRECIPATH, pH 6.2): 110.7 U/L
- lipase activity (Table 3) (sample PRECIPATH, pH 6.4): 109.5 U/L
- lipase activity (Table 3) (sample PRECIPATH, pH 6.6): 140.3 U/L
- lipase activity (Table 3) (sample PRECIPATH, pH 6.9): 157.3 U/L
- lipase activity relative to (1) comparative example NaDCA (Table 1) (sample PRECIPATH): 105.2%
- lipase activity (Table 3) (sample PRECIPATH, pH 7.2): 159.2 U/L
- lipase activity (Table 3) (sample PRECIPATH, pH 7.4): 152.7 U/L
- lipase activity (Table 3) (sample PRECIPATH, pH 7.6): 110.7 U/L
- lipase activity (Table 3) (sample Pool 1, pH 6.2): 42.1 U/L
- lipase activity (Table 3) (sample Pool 1, pH 6.4): 44.6 U/L
- lipase activity (Table 3) (sample Pool 1, pH 6.6): 45.2 U/L
- lipase activity (Table 3) (sample Pool 1, pH 6.9): 53.0 U/L
- lipase activity (Table 3) (sample Pool 1, pH 7.2): 52.4 U/L
- lipase activity (Table 3) (sample Pool 1, pH 7.4): 45.4 U/L
- lipase activity (Table 3) (sample Pool 1, pH 7.6): 39.1 U/L
- lipase activity (Table 3) (sample Pool 2, pH 6.2): 22.8 U/L
- lipase activity (Table 3) (sample Pool 2, pH 6.4): 24.8 U/L
- lipase activity (Table 3) (sample Pool 2, pH 6.6): 23.6 U/L
- lipase activity (Table 3) (sample Pool 2, pH 6.9): 28.0 U/L
- lipase activity (Table 3) (sample Pool 2, pH 7.2): 28.2 U/L
- lipase activity (Table 3) (sample Pool 2, pH 7.4): 27.0 U/L
- lipase activity (Table 3) (sample Pool 2, pH 7.6): 18.3 U/L
- lipase activity (Table 3) (sample Seraclear, pH 6.2): 23.7 U/L
- lipase activity (Table 3) (sample Seraclear, pH 6.4): 25.4 U/L
- lipase activity (Table 3) (sample Seraclear, pH 6.6): 28.6 U/L
- lipase activity (Table 3) (sample Seraclear, pH 6.9): 31.7 U/L
- lipase activity (Table 3) (sample Seraclear, pH 7.2): 33.8 U/L
- lipase activity (Table 3) (sample Seraclear, pH 7.4): 31.4 U/L
- lipase activity (Table 3) (sample Seraclear, pH 7.6): 20.2 U/L
SMILES: C[C@H](CCC(=O)NCCS(=O)(=O)[O-])[C@H]1CC[C@H]2[C@@H]3CC[C@@H]4C[C@H](O)CC[C@]4(C)[C@H]3C[C@H](O)[C@]12C.[Na+] [NaTDCA, sodium taurodeoxycholate]
